Experimental data: ChEMBL document CHEMBL4828724 (Eur J Med Chem, 2021)

Legend:
[1] = target: T1, Synaptic vesicular amine transporter (Rattus norvegicus, UniProt Q01827); experiment: Inhibition of [3H]DTBZ binding to VMAT2 in rat brain incubated for 30 mins by liquid scintillation spectrometry analysis; format: tissue-based
[2] = target: Synaptic vesicular amine transporter (Rattus norvegicus) (UniProt Q01827); experiment: Inhibition of [3H]DA uptake at VMAT2 in rat striatal synaptosome at 1 uM incubated for 10 mins followed by [3H]DA addition and measured after 20 mins by TopCount scintillation counting method relative to control; format: subcellular; details: Striatum, time 30.0 min
Synaptic vesicular amine transporter (Rattus norvegicus), sequence (Q01827 whole entry): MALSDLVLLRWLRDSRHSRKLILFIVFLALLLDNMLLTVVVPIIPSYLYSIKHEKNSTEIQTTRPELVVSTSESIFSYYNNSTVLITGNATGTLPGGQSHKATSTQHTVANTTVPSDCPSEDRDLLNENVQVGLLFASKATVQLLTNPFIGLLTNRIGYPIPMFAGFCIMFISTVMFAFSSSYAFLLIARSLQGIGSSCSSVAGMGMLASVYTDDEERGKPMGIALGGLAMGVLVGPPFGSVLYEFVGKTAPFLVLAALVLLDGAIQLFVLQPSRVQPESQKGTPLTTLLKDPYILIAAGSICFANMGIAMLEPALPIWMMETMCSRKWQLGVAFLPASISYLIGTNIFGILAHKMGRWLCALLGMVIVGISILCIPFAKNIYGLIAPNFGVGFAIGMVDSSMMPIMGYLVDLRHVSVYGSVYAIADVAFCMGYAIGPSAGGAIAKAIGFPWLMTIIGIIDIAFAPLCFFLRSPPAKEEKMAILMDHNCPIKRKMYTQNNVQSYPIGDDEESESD

[3] = target: Synaptic vesicular amine transporter (Rattus norvegicus) (UniProt Q01827); experiment: Inhibition of [3H]DA uptake at VMAT2 in rat striatal synaptosome at 0.1 uM incubated for 10 mins followed by [3H]DA addition and measured after 20 mins by TopCount scintillation counting method relative to control; format: subcellular; details: Striatum, time 30.0 min
[4] = target: T1, Synaptic vesicular amine transporter; experiment: Inhibition of [3H]DA uptake at VMAT2 in rat striatal synaptosome incubated for 10 mins followed by [3H]DA addition and measured after 20 mins by TopCount scintillation counting method; format: subcellular, Striatum
[5] = Metabolic stability in monkey liver microsomes assessed as parent compound remaining at 1 uM in the presence of NADPH measured after 60 mins by LC-MS/MS analysis; format: ADME, Macaca mulatta, Microsome; details: rhesus monkey; for remaining at 1 h, 1 µM: liver microsomes, read-out: Stability
[6] = Metabolic stability in mouse liver microsomes assessed as parent compound remaining at 1 uM in the presence of NADPH measured after 60 mins by LC-MS/MS analysis; format: ADME, Microsome; details: for remaining at 1 h, 1 µM: liver microsomes, read-out: Stability
[7] = Metabolic stability in human liver microsomes assessed as parent compound remaining at 1 uM in the presence of NADPH measured after 60 mins by LC-MS/MS analysis; format: ADME, Microsome; details: read-out: Stability
[8] = Metabolic stability in monkey liver microsomes assessed as intrinsic clearance at 1 uM in the presence of NADPH measured for 60 mins by LC-MS/MS analysis; format: ADME, Macaca mulatta, Microsome; details: rhesus monkey, read-out: CLH
[9] = Metabolic stability in mouse liver microsomes assessed as intrinsic clearance at 1 uM in the presence of NADPH measured for 60 mins by LC-MS/MS analysis; format: ADME, Microsome; details: read-out: CLH
[10] = Metabolic stability in human liver microsomes assessed as intrinsic clearance at 1 uM in the presence of NADPH measured for 60 mins by LC-MS/MS analysis; format: ADME, Microsome; details: read-out: CLH
[11] = Metabolic stability in human liver microsomes assessed as half life at 1 uM in the presence of NADPH measured for 60 mins by LC-MS/MS analysis; format: ADME, Microsome
[12] = Metabolic stability in mouse liver microsomes assessed as half life at 1 uM in the presence of NADPH measured for 60 mins by LC-MS/MS analysis; format: ADME, Microsome; details: for half-life at 1 µM: liver microsomes
[13] = Metabolic stability in monkey liver microsomes assessed as half life at 1 uM in the presence of NADPH measured for 60 mins by LC-MS/MS analysis; format: ADME, Macaca mulatta, Microsome; details: rhesus monkey
[14] = target: Voltage-gated inwardly rectifying potassium channel KCNH2 (Homo sapiens, UniProt Q12809); experiment: Inhibition of human ERG
Voltage-gated inwardly rectifying potassium channel KCNH2, sequence (Q12809 whole entry): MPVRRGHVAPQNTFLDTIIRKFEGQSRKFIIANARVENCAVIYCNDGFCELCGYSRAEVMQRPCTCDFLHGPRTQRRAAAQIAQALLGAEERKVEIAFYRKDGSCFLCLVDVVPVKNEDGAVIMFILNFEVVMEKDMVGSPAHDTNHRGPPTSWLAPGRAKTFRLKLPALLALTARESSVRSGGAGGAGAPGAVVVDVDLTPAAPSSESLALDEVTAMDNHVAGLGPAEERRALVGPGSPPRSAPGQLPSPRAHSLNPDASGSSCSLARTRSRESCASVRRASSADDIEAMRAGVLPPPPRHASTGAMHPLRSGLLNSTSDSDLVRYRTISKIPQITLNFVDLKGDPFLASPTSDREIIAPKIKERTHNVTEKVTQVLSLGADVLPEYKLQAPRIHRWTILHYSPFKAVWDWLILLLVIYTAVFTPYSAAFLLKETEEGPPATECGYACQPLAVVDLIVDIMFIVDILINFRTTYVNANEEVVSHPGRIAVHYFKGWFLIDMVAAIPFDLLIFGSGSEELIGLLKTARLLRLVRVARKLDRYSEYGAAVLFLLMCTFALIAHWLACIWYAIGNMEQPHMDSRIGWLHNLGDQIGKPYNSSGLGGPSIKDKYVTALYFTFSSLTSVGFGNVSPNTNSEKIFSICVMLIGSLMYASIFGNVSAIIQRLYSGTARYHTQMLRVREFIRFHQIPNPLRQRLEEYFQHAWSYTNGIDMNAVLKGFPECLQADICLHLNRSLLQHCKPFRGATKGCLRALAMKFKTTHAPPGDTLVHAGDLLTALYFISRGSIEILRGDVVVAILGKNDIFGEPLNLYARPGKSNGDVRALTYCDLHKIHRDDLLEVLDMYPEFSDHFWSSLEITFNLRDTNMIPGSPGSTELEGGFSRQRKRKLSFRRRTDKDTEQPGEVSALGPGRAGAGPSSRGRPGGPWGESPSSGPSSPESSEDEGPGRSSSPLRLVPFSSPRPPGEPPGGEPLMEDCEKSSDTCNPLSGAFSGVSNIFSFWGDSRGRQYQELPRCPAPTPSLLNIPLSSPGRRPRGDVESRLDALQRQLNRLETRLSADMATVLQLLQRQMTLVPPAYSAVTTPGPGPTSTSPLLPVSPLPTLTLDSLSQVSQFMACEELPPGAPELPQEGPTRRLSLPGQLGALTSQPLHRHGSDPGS

[15] = Tmax in Sprague-Dawley rat at 10 umol/kg, ig administered as single dose measured for 12 hrs by LC-MS/MS analysis; format: ADME; details: in vivo, po, dose 10 µmol/kg
[16] = Cmax in Sprague-Dawley rat at 10 umol/kg, ig administered as single dose measured for 12 hrs by LC-MS/MS analysis; format: ADME; parameters: route […], time 12 hrs, dose 10 µmol/kg; details: in vivo, po
[17] = AUC (0 to infinity) in Sprague-Dawley rat at 10 umol/kg, ig administered as single dose by LC-MS/MS analysis; format: ADME; parameters: time infinity, route […], dose 10 µmol/kg; details: in vivo, po
[18] = Apparent volume of distribution during terminal phase in Sprague-Dawley rat at 10 umol/kg, ig administered as single dose measured after 12 hrs by LC-MS/MS analysis; format: ADME; details: in vivo, po, dose 10 µmol/kg, read-out: Vz/F
[19] = Clearance in Sprague-Dawley rat at 10 umol/kg, ig administered as single dose measured for 12 hrs by LC-MS/MS analysis; format: ADME; details: in vivo, po, dose 10 µmol/kg
[20] = Half life in Sprague-Dawley rat at 10 umol/kg, ig administered as single dose measured for 12 hrs by LC-MS/MS analysis; format: ADME; details: in vivo, po, dose 10 µmol/kg
Rattus norvegicus [21] = experiment: Reduction in spontaneous locomotor activity in Sprague-Dawley rat at 3 umol/kg, po measured for 3 hrs; format: functional
Rattus norvegicus [22] = experiment: Reduction in spontaneous locomotor activity in Sprague-Dawley rat at 15 umol/kg, po measured for 3 hrs; format: functional
[23] = Drug uptake in Sprague-Dawley rat brain at 5 umol/kg, ig measured after 2 hrs by LC-MS/MS analysis; format: ADME, tissue-based; details: in vivo, po, dose 5 µmol/kg
Cytochrome P450 3A4 = Cytochrome P450 3A4 (Homo sapiens, UniProt P08684); experiment: Inhibition of CYP3A4 (unknown origin); format: ADME
Cytochrome P450 3A4, sequence (P08684 whole entry): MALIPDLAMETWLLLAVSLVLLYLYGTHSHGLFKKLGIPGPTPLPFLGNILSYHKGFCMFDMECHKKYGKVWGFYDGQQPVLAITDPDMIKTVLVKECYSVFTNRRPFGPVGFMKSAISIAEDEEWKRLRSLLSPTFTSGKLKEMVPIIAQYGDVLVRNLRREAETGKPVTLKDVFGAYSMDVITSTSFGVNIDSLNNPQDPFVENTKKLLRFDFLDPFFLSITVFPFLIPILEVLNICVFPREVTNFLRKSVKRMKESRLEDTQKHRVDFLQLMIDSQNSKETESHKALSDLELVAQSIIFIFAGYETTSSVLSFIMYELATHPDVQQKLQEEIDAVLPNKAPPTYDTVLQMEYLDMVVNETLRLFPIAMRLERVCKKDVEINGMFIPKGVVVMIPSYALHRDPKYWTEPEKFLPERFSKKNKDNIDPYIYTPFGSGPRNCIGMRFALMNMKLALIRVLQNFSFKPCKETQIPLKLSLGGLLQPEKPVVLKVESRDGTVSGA

Cytochrome P450 2C9 = Cytochrome P450 2C9 (Homo sapiens, UniProt P11712); experiment: Inhibition of CYP2C9 (unknown origin); format: ADME
Cytochrome P450 2C9, sequence (P11712 whole entry): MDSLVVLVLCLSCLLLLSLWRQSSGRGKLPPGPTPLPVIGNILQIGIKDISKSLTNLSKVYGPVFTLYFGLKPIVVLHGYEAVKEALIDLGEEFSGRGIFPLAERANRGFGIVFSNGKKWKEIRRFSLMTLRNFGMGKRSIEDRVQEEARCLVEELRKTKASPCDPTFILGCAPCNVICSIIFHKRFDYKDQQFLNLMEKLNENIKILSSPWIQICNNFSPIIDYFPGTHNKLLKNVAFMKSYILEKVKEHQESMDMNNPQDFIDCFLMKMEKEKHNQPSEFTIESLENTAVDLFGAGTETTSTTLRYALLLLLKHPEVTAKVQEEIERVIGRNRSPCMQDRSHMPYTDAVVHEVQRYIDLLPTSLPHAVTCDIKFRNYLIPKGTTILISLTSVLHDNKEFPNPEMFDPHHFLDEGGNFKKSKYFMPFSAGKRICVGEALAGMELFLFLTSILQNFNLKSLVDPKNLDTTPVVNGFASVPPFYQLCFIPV

Cytochrome P450 2D6 = Cytochrome P450 2D6 (Homo sapiens, UniProt P10635); experiment: Inhibition of CYP2D6 (unknown origin); format: ADME
Cytochrome P450 2D6, sequence (P10635 whole entry): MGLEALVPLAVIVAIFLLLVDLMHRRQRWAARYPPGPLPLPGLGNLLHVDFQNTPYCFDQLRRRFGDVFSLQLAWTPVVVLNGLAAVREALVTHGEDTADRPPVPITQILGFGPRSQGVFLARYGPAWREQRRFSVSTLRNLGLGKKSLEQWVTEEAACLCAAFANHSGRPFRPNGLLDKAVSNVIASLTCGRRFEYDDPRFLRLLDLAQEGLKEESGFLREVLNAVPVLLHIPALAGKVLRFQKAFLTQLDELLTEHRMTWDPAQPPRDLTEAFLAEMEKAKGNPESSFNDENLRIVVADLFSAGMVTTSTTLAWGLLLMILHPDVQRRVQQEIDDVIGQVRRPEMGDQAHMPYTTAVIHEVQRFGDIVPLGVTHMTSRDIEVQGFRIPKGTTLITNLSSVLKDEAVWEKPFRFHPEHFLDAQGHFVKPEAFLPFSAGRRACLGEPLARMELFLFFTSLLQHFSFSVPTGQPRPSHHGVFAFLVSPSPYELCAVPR

Cytochrome P450 2C19 = Cytochrome P450 2C19 (Homo sapiens, UniProt P33261); experiment: Inhibition of CYP2C19 (unknown origin); format: ADME
Cytochrome P450 2C19, sequence (P33261 whole entry): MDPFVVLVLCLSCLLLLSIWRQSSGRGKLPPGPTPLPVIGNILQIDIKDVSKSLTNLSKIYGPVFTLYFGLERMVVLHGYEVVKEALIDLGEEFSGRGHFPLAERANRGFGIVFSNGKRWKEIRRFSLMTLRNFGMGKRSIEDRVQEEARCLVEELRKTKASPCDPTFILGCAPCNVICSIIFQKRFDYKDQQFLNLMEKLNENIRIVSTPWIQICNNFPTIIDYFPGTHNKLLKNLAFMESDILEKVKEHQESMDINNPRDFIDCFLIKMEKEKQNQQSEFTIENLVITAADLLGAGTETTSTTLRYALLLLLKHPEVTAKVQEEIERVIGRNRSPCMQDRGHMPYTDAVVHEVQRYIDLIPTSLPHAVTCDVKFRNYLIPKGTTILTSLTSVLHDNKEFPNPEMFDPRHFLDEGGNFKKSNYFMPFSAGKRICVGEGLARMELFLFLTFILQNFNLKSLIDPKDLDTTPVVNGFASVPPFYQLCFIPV

Cytochrome P450 2B6 = target: T2, Cytochrome P450 2B6 (Homo sapiens, UniProt P20813); experiment: Inhibition of CYP2B6 (unknown origin); format: ADME
T2 sequence (P20813 whole entry): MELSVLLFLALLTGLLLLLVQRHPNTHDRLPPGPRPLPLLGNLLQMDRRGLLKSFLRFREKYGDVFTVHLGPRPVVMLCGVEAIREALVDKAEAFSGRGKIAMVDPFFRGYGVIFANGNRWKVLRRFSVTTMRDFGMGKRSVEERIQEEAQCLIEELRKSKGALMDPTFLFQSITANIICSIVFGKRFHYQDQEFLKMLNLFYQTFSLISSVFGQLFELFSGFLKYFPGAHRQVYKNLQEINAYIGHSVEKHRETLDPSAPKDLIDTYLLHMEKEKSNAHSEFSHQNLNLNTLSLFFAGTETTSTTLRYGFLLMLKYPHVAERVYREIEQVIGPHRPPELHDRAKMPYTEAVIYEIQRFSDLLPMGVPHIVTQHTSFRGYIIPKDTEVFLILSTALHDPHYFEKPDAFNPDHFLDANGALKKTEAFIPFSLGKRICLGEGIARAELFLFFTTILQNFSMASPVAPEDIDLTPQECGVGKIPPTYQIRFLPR

T1 sequence (Q01827 whole entry): as the sequence (Q01827 whole entry) above

CCCOc1cc2c(cc1OC(C)C)C1CC(O)C(CC(C)C)CN1CC2 (stereo not given)
IC50 [1]: > 500 nM

CCCOc1cc2c(cc1OC)C1CC(O)C(CC(C)C)CN1CC2 (stereo not given)
inhibition [2]: 99.3%
inhibition [3]: 91.2%
IC50 [4]: 35.2 nM

CCCOc1cc2c(cc1OCC)C1CC(O)C(CC(C)C)CN1CC2 (stereo not given)
remaining at 1 h, 1 µM [5]: 6.6%
remaining at 1 h, 1 µM [6]: 1.3%
remaining at 1 h, 1 µM [7]: 47.3%
CLint scaled at 1 µM [8]: 120 mL/min/kg
CLint scaled at 1 µM [9]: 535 mL/min/kg
CLint scaled at 1 µM [10]: 22.5 mL/min/kg
IC50 [1]: 12.5 nM
half-life at 1 µM [11]: 55.4 min
half-life at 1 µM [12]: 10.3 min
half-life at 1 µM [13]: 15.6 min

COc1cc2c(cc1OC)[C@H]1C[C@@H](OC(=O)[C@@H](N)C(C)C)[C@H](CC(C)C)CN1CC2 [VALBENAZINE]
IC50 [14]: 1700 nM

CCOc1cc2c(cc1OCCCOC)C1CC(O)C(CC(C)C)CN1CC2 (stereo not given)
IC50 [1]: 73.2 nM

COc1cc2c(cc1OC)C1CC(O)(C#N)C(CC(C)C)CN1CC2 (stereo not given)
IC50 [1]: 87 nM
inhibition [2]: 93.7%
inhibition [3]: 85%
IC50 [4]: 27.9 nM

CCOc1cc2c(cc1OCC1CC1)CCN1CC(CC(C)C)C(O)CC21 (stereo not given)
IC50 [1]: 21.4 nM

COCCCOc1cc2c(cc1OC)C1CC(O)C(CC(C)C)CN1CC2 (stereo not given)
inhibition [2]: 92.1%
inhibition [3]: 84.9%
IC50 [4]: 64.9 nM

CCOc1cc2c(cc1OCCCF)CCN1CC(CC(C)C)C(O)CC21 (stereo not given)
IC50 [1]: 56.6 nM

CCOc1cc2c(cc1OC)C1CC(O)C(CC(C)C)CN1CC2 (stereo not given)
Stability ([5]; microsomes, 1 h, 1 µM): 23.7%
remaining at 1 h, 1 µM [6]: 9.4%
remaining at 1 h, 1 µM [7]: 66.8%
CLint scaled at 1 µM [8]: 131 mL/min/kg
CLint scaled at 1 µM [9]: 283 mL/min/kg
CLint scaled at 1 µM [10]: 14.4 mL/min/kg
inhibition [2]: 99.9%
inhibition [3]: 99.9%
IC50 [4]: 5.72 nM

COc1cc2c(cc1OC)C1CC(C)(O)C(CC(C)C)CN1CC2 (stereo not given)
IC50 [1]: > 500 nM
inhibition [2]: 96.1%
inhibition [3]: 53.1%

CCCOc1cc2c(cc1OC(C)C)CCN1CC(CC(C)C)C(O)CC21 (stereo not given)
IC50 [1]: > 500 nM

COc1cc2c(cc1OC)C1CC(=O)C(CC(C)C)CN1CC2 (stereo not given) [TETRABENAZINE]
remaining at 1 h, 1 µM [5]: 10.5%
remaining at 1 h, 1 µM [6]: 13.4%
remaining at 1 h, 1 µM [7]: 30.8%
CLint scaled at 1 µM [8]: 149 mL/min/kg
CLint scaled at 1 µM [9]: 254 mL/min/kg
CLint scaled at 1 µM [10]: 76 mL/min/kg
half-life at 1 µM [11]: 32.8 min
half-life at 1 µM [12]: 21.6 min
half-life at 1 µM [13]: 12.6 min

CC(C)CC1CN2CCc3cc(OCC4CC4)c(OCC4CC4)cc3C2CC1O (stereo not given)
IC50 [1]: 210 nM

COc1cc2c(cc1OC)[C@H]1C[C@@H](O)[C@H](CC(C)C)CN1CC2 [DIHYDROTETRABENAZINE]
remaining at 1 h, 1 µM [5]: 29.9%
remaining at 1 h, 1 µM [6]: 4.8%
remaining at 1 h, 1 µM [7]: 75.6%
CLint scaled at 1 µM [8]: 53.7 mL/min/kg
CLint scaled at 1 µM [9]: 1150 mL/min/kg
CLint scaled at 1 µM [10]: 20.9 mL/min/kg
half-life at 1 µM [11]: 120 min
half-life at 1 µM [12]: 4.8 min
half-life at 1 µM [13]: 34.8 min
Tmax [15]: 22.8 min
Cmax [16]: 1210 nM
AUC(0-inf) [17]: 2.3 µM·h
Vd/F [18]: 10.5 L/kg
CL/F [19]: 74.5 mL/min/kg
half-life [20]: 96.6 min
inhibition in vivo at 3 µmol/kg (Rattus norvegicus [21]): 48.4%
inhibition in vivo at 15 µmol/kg (Rattus norvegicus [22]): 91.4%
Drug uptake [23]: 213.5 nmol/kg
IC50 (Cytochrome P450 3A4): > 100000 nM
IC50 (Cytochrome P450 2C9): > 100000 nM
IC50 (Cytochrome P450 2D6): > 100000 nM
IC50 (Cytochrome P450 2C19): > 100000 nM
IC50 (Cytochrome P450 2B6): > 100000 nM

CCOc1cc2c(cc1OCCCF)C1CC(O)C(CC(C)C)CN1CC2 (stereo not given)
IC50 [1]: > 500 nM

CCOc1cc2c(cc1OCC1CC1)C1CC(O)C(CC(C)C)CN1CC2 (stereo not given)
IC50 [1]: > 500 nM

COc1cc2c(cc1OC)C1CC(O)(CO)C(CC(C)C)CN1CC2 (stereo not given)
CLint scaled at 1 µM [9]: 143 mL/min/kg
CLint scaled at 1 µM [10]: 109 mL/min/kg
IC50 [1]: 8.02 nM
inhibition [2]: 99.7%
inhibition [3]: 99.1%
IC50 [4]: 5.14 nM

CCOc1cc2c(cc1OC)CCN1CC(CC(C)C)C(O)CC21 (stereo not given)
IC50 [1]: > 500 nM

CCOc1cc2c(cc1OCCCOC)CCN1CC(CC(C)C)C(O)CC21 (stereo not given)
IC50 [1]: 200 nM

CCC1(O)CC2c3cc(OC)c(OC)cc3CCN2CC1CC(C)C (stereo not given)
IC50 [1]: > 500 nM
inhibition [2]: 81.7%
inhibition [3]: 33.2%

COc1cc2c(cc1OC)C1CC(N)C(CC(C)C)CN1CC2 (stereo not given)
IC50 [1]: 102 nM
inhibition [2]: 87.9%
inhibition [3]: 72.8%

COc1cc2c(cc1OCC1CC1)CCN1CC(CC(C)C)C(O)CC21 (stereo not given)
remaining at 1 h, 1 µM [5]: 17.6%
Stability ([6]; microsomes, 1 h, 1 µM): 22.6%
remaining at 1 h, 1 µM [7]: 74.7%
CLint scaled at 1 µM [8]: 72.4 mL/min/kg
CLint scaled at 1 µM [9]: 522 mL/min/kg
CLint scaled at 1 µM [10]: 19.4 mL/min/kg
IC50 [1]: 5.99 nM
inhibition [2]: 99.2%
inhibition [3]: 96%
IC50 [4]: 17.8 nM
half-life at 1 µM [11]: 128 min
t1/2 ([12]; microsomes, 1 h, 1 µM): 10.5 min
half-life at 1 µM [13]: 25.9 min
